Measurements taken from patent publication US10800790B2, “Sesquiterpenoid STAT3 inhibitors” (University of Hawaii, priority 2013, dated 2020).

Assays:
[1] = tested on: U251MG glioblastoma cells; test: CyQuant cell viability/proliferation assay, U251MG; format: cell-based, human; parameters: key to Activity against U251: +, active; −, no activity; +/−, poorly active; settings: for Inhibitory potency compared with 22 (CyQuant): 72-h treatment, FIG. 10, synthetic derivatives of 22; for Activity against U251: Table 1 grade, Table 1/FIG. 2 compound numbering; for U251MG % inhibition / inhibition at 5 µM: at 5 μM, 72 h; for U251MG % inhibition / Inhibitory effect on viability of U251MG (tumor) cells, in words / inhibition at 5 µM: Table 3 numbering (isolates 1-16); for Inhibitory effect on viability of U251MG (tumor) cells, in words: 5 micromolar; for inhibition at 5 µM: Homo sapiens, U-251
Description: (§1) The cell viability assay was performed as previously reported (Zhang X, et al. (2010)). Briefly, a 10 millimolar concentration stock solution in dimethylsulfoxide (DMSO) of the tested molecule was first prepared. Next, the stock solution was diluted down to various working solutions in water. Thus, a formulation of the tested compound in a DMSO/water mixture was used to test for cell viability. (A novel small-molecule disrupts STAT3 SH2 domainphosphotyrosine interactions and STAT3-dependent tumor processes, Biochem Pharmacol 79:1398-1409; Zhao W, Jaganathan S, & Turkson J (2010), A cell-permeable STAT3 SH2 domain mimetic inhibits STAT3 activation and induces antitumor cell effects in vitro. J Biol Chem. 285:35855-35865). Cells (U251MG, MDA-MB-231 or NIH3T3) were obtained from ATCC (Manassas, Va.) and were cultured in 96-well plates at 2,000 cells per well for 24 h and were treated with compounds (5 micromolar concentration) for 72 h. Cell viabilty was determined using CyQuant assay, according to the manufacturer's (Invitrogen, CA, USA) instructions. Relative viability of the treated cells was normalized to the DMSO-treated control cells.

[2] = tested on: pY705STAT3 in U251MG or MDA-MB-231 cells; test: Immunoblotting of pY705STAT3 in treated tumor cells; settings: 5 micromolar, U251MG or MDA-MB-231; for Effect on pY705STAT3 / STAT3 activity (immunoblot), in words: 0-24 h, Table 1/FIG. 2 numbering
Description: Positions of STATs:DNA complexes or proteins in gel are labeled; control lanes (0) represent nuclear extracts or whole-cell lysates prepared from 0.05% DMSO-treated cells. Data are representative of at least three to four independent determinations.
Lysates of equal total protein prepared in the lysis buffer (50 mM Hepes, pH 7.5, 150 mM NaCl, 2 mM EDTA, 1% Triton X-100, 0.1% SDS), were subjected to IP or Western blotting analysis. Antibodies against STAT3, pY705STAT3, Src, pY416Src, Erk1/2, and pT202/Y204Erk1/2 and GAPDH (Cell Signaling Technology, Danvers, Mass.), and anti-β-actin, and HSP105 (Santa Cruz Biotechnology, Dallas, Tex.) are from the designated sources.
Whole-cell lysates were prepared in boiling SDS sample loading buffer to extract total proteins, as reported previously. […] Nitrocellulose membranes were probed with primary antibodies, and the detection of horseradish peroxidase-conjugated secondary antibodies by enhanced chemiluminescence (Amersham) was performed. Antibodies used were monoclonal anti-pYSTAT3 and anti-STAT3 antibodies (Cell Signaling Technology, Danvers, Mass.).

[3] = tested on: MDA-MB-231 breast cancer cells; test: CyQuant cell viability/proliferation assay, MDA-MB-231; format: cell-based, human; settings: for Inhibition of breast cancer MDA-MB-231, in words: 72-h treatment, FIG. 10; for MDA-MB-231 % inhibition / inhibition at 5 µM: at 5 μM, 72 h, Table 3 numbering (isolates 1-16); for inhibition at 5 µM: Homo sapiens, MDA-MB-231
Description: as §1

[4] = tested on: normal NIH3T3 mouse fibroblasts; test: CyQuant cell viability/proliferation assay, NIH3T3; format: cell-based; settings: Table 3 numbering (isolates 1-16); for NIH-3T3 % inhibition / inhibition at 5 µM: at 5 μM, 72 h; for inhibition at 5 µM: Mus musculus, NIH3T3, read-out: NIH-3T3 % inhibition
Description: as §1

With C/C=C(\C)C(=O)O[C@H]1C[C@@H](C)C2(OC)CCC(C)(/C=C3/OC(=O)C(COC(=O)C=Cc4ccccc4)=C31)O2 (stereo partly drawn) [zmm-1-72, (4S,6R,E)-3-((cinnamoyloxy)methyl)-7-methoxy-6,10-dimethyl-2-oxo-2,4,5,6,7,8,9,10-octahydro-7,10-epoxycyclodeca[b]furan-4-yl(E)-2-methylbut-2-enoate] the “Inhibitory potency compared with 22 (CyQuant)” value [1] was “retained the inhibitory potency as 22”.
With CC(=CCO)C(=O)OC1CC(C)C2(O)CCC(C)(C=C3OC(=O)C(CO)=C31)O2 (stereo not shown) [Compound 21] the “Activity against U251” value [1] was “−”.
CC(C)=CCCC(C)=CC(=O)OCC1=C2/C(=C\C3(C)CCC(O)(O3)[C@H](C)C[C@@H]2O)OC1=O (stereo partly drawn) [zmm-1-20, ((4S,6R,E)-4,7-dihydroxy-6,10-dimethyl-2-oxo-2,4,5,6,7,8,9,10-octahydro-7,10-epoxycyclodeca[b]furan-3-yl)methyl 3,7-dimethylocta-2,6-dienoate] was tested, and the “Inhibitory potency compared with 22 (CyQuant)” value [1] was “retained the inhibitory potency as 22” and the “Effect on pY705STAT3 / STAT3 activity (immunoblot), in words” value (“Effect on pY705STAT3 / STAT3 activity” for short) [2] was “inhibited pY705STAT3”.
For CC=C(C)C(=O)OC1CC(C)C2(OC)CCC(C)(C=C3OC(=O)C(CO)=C31)O2 (stereo not shown) [Compound 17], the “Activity against U251” value [1] was “−”.
C/C=C(\C)C(=O)OCC1=C2/C(=C\C3(C)CCC(OC)(O3)[C@H](C)C[C@@H]2OC(=O)/C(C)=C/C)OC1=O (stereo partly drawn) [zmm-1-37, (4S,6R,E)-7-methoxy-6,10-dimethyl-3-((((E)-2-methylbut-2-enoyl)oxy)methyl)-2-oxo-2,4,5,6,7,8,9,10-octahydro-7,10-epoxycyclodeca[b]furan-4-yl(E)-2-methylbut-2-enoate] was tested, and the “Inhibitory potency compared with 22 (CyQuant)” value [1] was “retained the inhibitory potency as 22”, the “Inhibition of breast cancer MDA-MB-231, in words” value [3] was “also inhibited breast cancer, MDA-MB-231” and the “Effect on pY705STAT3 / STAT3 activity” value [2] was “inhibited pY705STAT3”.
In the case of “(9Z,12S,13S)-dihydroxy-9-octadecanoic acid [Compound 16]”, the U251MG % inhibition [1] is reported as “ne (ne, no effect inhibition)”, the MDA-MB-231 % inhibition [3] is reported as “ne (ne, no effect inhibition)” and the NIH-3T3 % inhibition [4] is reported as “ne (ne, no effect inhibition)”.
For CCCC(CCC)C(=O)OCC1=C2/C(=C\C3(C)CCC(O)(O3)[C@H](C)C[C@@H]2O)OC1=O (stereo partly shown) [zmm-1-80], the “Inhibitory potency compared with 22 (CyQuant)” value [1] was “retained the inhibitory potency as 22”.
With C=C(C)C(=O)OC1CC(C)C2(O)CCC(C)(C=C3OC(=O)C(CO)=C31)O2 (stereo not drawn) [Compound 5, 8α-(2-methylacryloyloxy)-hirsutinolide] the U251MG % inhibition [1] was “ne (ne, no effect inhibition)”, the MDA-MB-231 % inhibition [3] was “ne (ne, no effect inhibition)” and the NIH-3T3 % inhibition [4] was “ne (ne, no effect inhibition)”.
In the case of C[C@@H]1C[C@H](O)C2=C(COC(=O)/C=C/c3ccc(F)cc3)C(=O)O/C2=C/C2(C)CCC1(O)O2 (stereo partly shown) [zmm-1-78], the “Inhibition of breast cancer MDA-MB-231, in words” value [3] is reported as “also inhibited breast cancer, MDA-MB-231”.
For CC=C(C)C(=O)OCC1=C2C(=CC3(C)CCC(O)(O3)C(C)CC2O)OC1=O (stereo not drawn) [Compound 4, 8α-hydroxy-13-O-tigloyl-hirsutinolide], the “Inhibitory effect on viability of U251MG (tumor) cells, in words” value [1] was “high inhibitory effect”, the U251MG % inhibition [1] was 80.9% and the MDA-MB-231 % inhibition [3] was 26.2%. The “Inhibitory effect on NIH3T3 fibroblasts, in words” value ([4]; 5 micromolar) was “lower inhibitory effect” and the NIH-3T3 % inhibition [4] was 32.1%.
In the case of C[C@@H]1C[C@H](O)C2=C(COC(=O)CCc3ccccc3)C(=O)O/C2=C/C2(C)CCC1(O)O2 (stereo partly drawn) [zmm-1-82, ((4S,6R,E)-4,7-dihydroxy-6,10-dimethyl-2-oxo-2,4,5,6,7,8,9,10-octahydro-7,10-epoxycyclodeca[b]furan-3-yl)methyl 3-phenylpropanoate], the “Inhibitory potency compared with 22 (CyQuant)” value [1] is reported as “retained the inhibitory potency as 22”.
With CC=C(C)C(=O)OC1CC(C)C2(O)CCC(C)(C=C3OC(=O)C(CO)=C31)O2 (stereo not drawn) [Compound 1, 8α-(2′Z-tigloyloxy)hirsutinolide] the U251MG % inhibition [1] was “ne (ne, no effect inhibition)”, the MDA-MB-231 % inhibition [3] was “ne (ne, no effect inhibition)” and the NIH-3T3 % inhibition [4] was “ne (ne, no effect inhibition)”.
In the case of CC(C)=CC(=O)OCC1=C2/C(=C\C3(C)CCC(O)(O3)[C@H](C)C[C@@H]2O)OC1=O (stereo partly drawn) [zmm-1-21, ((4S,6R,E)-4,7-dihydroxy-6,10-dimethyl-2-oxo-2,4,5,6,7,8,9,10-octahydro-7,10-epoxycyclodeca[b]furan-3-yl)methyl 3-methyl but-2-enoate], the “Effect on pY705STAT3 / STAT3 activity” value [2] is reported as “showed little effects on pY705STAT3”.
With CCC(C)C(=O)OCC1=C2/C(=C\C3(C)CCC(O)(O3)[C@H](C)C[C@@H]2O)OC1=O (stereo partly drawn) [zmm-1-18, ((4S,6R,E)-4,7-dihydroxy-6,10-dimethyl-2-oxo-2,4,5,6,7,8,9,10-octahydro-7,10-epoxycyclodeca[b]furan-3-yl)methyl 2-methylbutanoate] the “Effect on pY705STAT3 / STAT3 activity” value [2] was “showed little effects on pY705STAT3”.
In the case of “8α-(2′Z-tigloyloxy)hirsutinolide-13-O-acetate [Compound 2]”, the “Inhibitory effect on viability of U251MG (tumor) cells, in words” value [1] is reported as “weak inhibitory effect”, the U251MG % inhibition [1] is reported as 48.6% and the MDA-MB-231 % inhibition [3] is reported as “ne (ne, no effect inhibition)”. The NIH-3T3 % inhibition [4] was 8.0% and the “Inhibition of pY705STAT3 (immunoblot), in words” value ([2]; Table 3 numbering (isolates 1-16)) was “inhibited STAT3 phosphorylation”.
Work on CC1(C)C[C@H](O)C[C@@]2(C)OC(=O)C=C12 [Compound 12, loliolide] yielded an inhibition at 5 µM [1] of under 6%, an inhibition at 5 µM [3] of under 6% and an inhibition at 5 µM [4] of under 6%.
In the case of CC(C)=CCCC(C)CC(=O)OCC1=C2/C(=C\C3(C)CCC(O)(O3)[C@H](C)C[C@@H]2O)OC1=O (stereo partly drawn) [zmm-1-22, ((4S,6R,E)-4,7-dihydroxy-6,10-dimethyl-2-oxo-2,4,5,6,7,8,9,10-octahydro-7,10-epoxycyclodeca[b]furan-3-yl)methyl 3,7-dimethyloct-6-enoate], the “Inhibitory potency compared with 22 (CyQuant)” value [1] is reported as “retained the inhibitory potency as 22” and the “Effect on pY705STAT3 / STAT3 activity” value [2] is reported as “inhibited pY705STAT3”.
For C[C@@H]1C[C@H](O)C2=C(COC(=O)/C=C/c3ccc(C(F)(F)F)cc3)C(=O)O/C2=C/C2(C)CCC1(O)O2 (stereo partly shown) [zmm-1-79], the “Inhibitory potency compared with 22 (CyQuant)” value [1] was “retained the inhibitory potency as 22”.
Molecule O=c1cc(-c2ccc(O)cc2)oc2cc(O)cc(O)c12 [Compound 15, apigenine] has an inhibition at 5 µM [1] of under 6%, an inhibition at 5 µM [3] of under 6% and an inhibition at 5 µM [4] of under 6%.
With C/C=C(\C)C(=O)OCC1=C2/C(=C\C3(C)CCC(O)(O3)[C@H](C)C[C@@H]2OC(=O)/C(C)=C/C)OC1=O (stereo partly drawn) [zmm-1-36, (4S,6R,E)-7-hydroxy-6,10-dimethyl-3-((((E)-2-methylbut-2-enoyl)oxy)methyl)-2-oxo-2,4,5,6,7,8,9,10-octahydro-7,10-epoxycyclodeca[b]furan-4-yl(E)-2-methylbut-2-enoate] the “Inhibitory potency compared with 22 (CyQuant)” value [1] was “retained the inhibitory potency as 22”, the “Cell-type selectivity of growth inhibition, in words” value ([1]; U251MG versus other cells incl. NIH3T3, Table 1/FIG. 2 numbering) was “lost cell-type specificity” and the “Effect on pY705STAT3 / STAT3 activity” value [2] was “inhibited pY705STAT3”.
“8α-(4-hydroxytigloyloxy)-hirsutinolide [Compound 3]” was tested, and the U251MG % inhibition [1] was “ne (ne, no effect inhibition)”, the MDA-MB-231 % inhibition [3] was “ne (ne, no effect inhibition)” and the NIH-3T3 % inhibition [4] was “ne (ne, no effect inhibition)”.
In the case of C[C@@H]1C[C@H](O)C2=C(COC(=O)C=Cc3ccccc3)C(=O)O/C2=C/C2(C)CCC1(O)O2 (stereo partly drawn) [zmm-1-19, ((4S,6R,E)-4,7-dihydroxy-6,10-dimethyl-2-oxo-2,4,5,6,7,8,9,10-octahydro-7,10-epoxycyclodeca[b]furan-3-yl)methyl cinnamate], the “Inhibitory potency compared with 22 (CyQuant)” value [1] is reported as “retained the inhibitory potency as 22” and the “Effect on pY705STAT3 / STAT3 activity” value [2] is reported as “inhibited pY705STAT3”.
